Assay results from US7935182B2, “Solution for wood preservation” (priority 2004, dated 2011).

Experiment: copper leaching from wood impregnated with preservative solution
Assay type: physicochemical

copper leaching rates compared to diethanolamine or triethanolamine (wood impregnated with preservative solution, ethanolamine used as amine source)	Compound	Copper leached in % (wood treated with copper based preservative solution)
Almost ten times lowest	NCCO [ethanolamine]	–
–	O=S(=O)([O-])[O-].[Cu+2] [Copper (II) sulphate]	45-55%^
